Results published in patent US4188402A, “Derivatives of the D-threo-1-phenyl-2-trifluoroacetamido-1,3-propandediol” (Clesa S.p.A., priority 1977, dated 1980).
In brackets after ≈: the same amount, converted by molar mass.

Key:
[1] = test system: Streptococcus faecalis; assay: MIC in culture broth, in the presence of rabbit serum, against thiamphenicol-resistant strain; type: cell-based; conditions: Enterococcus faecalis
Source text: (§1) Furthermore, the compounds of the present invention show a certain bacterial activity, both "in vitro" and in the presence of rabbit serum, in respect of some microorganism strains resistant against thiamphenicol (ie., […]; see Merck Index Ninth Edition, page 9034) as it appears from the following results:
(§2) ** = tests carried out in culture broth, in the presence of rabbit serum.

[2] = test system: Pseudomonas aeruginosa 50541; assay: as above; type: cell-based; conditions: Pseudomonas aeruginosa 50541, thiamphenicol-resistant
Source text: as §1, §2

[3] = test system: Staphylococcus albus 1238; assay: MIC in vitro against thiamphenicol-resistant strain; type: cell-based; conditions: Staphylococcus albus 1238, thiamphenicol-resistant
Source text: as §1, with “results: […]” for “results:”

[4] = test system: Streptococcus faecalis Z 20; assay: as above; type: cell-based; conditions: Enterococcus faecalis, Z20, Streptococcus faecalis Z 20, thiamphenicol-resistant
Source text: as §1, with “results: […]” for “results:”

[5] = test system: Staphylococcus aureus 4180; assay: as above; type: cell-based; conditions: Staphylococcus aureus 4180, thiamphenicol-resistant
Source text: as §1, with “results: […]” for “results:”

[6] = test system: Streptococcus faecalis Z 61; assay: as above; type: cell-based; conditions: Enterococcus faecalis, Z61, Streptococcus faecalis Z 61, thiamphenicol-resistant
Source text: as §1, with “results: […]” for “results:”

[7] = test system: multocide NCTC 10722 Pasteurella; assay: PD50 in experimental infection of the mouse by intraperitoneal inoculation (Table 3); type: in vivo; conditions: 120 h, treatment time 5 days, about 100 times the lethal amount at 50% i.p., Spearman-Karber
Source text: The study of the antibiotic activity of the derivatives of the present invention was completed by the determination of PD50 in experimental infections from multocide NCTC 10722 Pasteurella induced in the mouse by intraperitoneal inoculation of a bacterial amount equal to about 100 times the lethal amount at 50%. The determination of PD50 relating to the examined derivatives has been carried out according to the method of Spearman-Karber (L. Cavalli-Sforza "Analisi statistica per medici e biologi e analisi del dosaggio biologico"--Ed. Universitarie Boringhieri--Torino--1961, pages 173-175).

[8] = test system: Past. multocide NCTC 10722; assay: MIC, agar dilutions in a double series, in vitro (Table 2); type: cell-based; conditions: Past. multocide NCTC 10722, agar dilution
Description: (§3) Insofar as the study of the antibacterial activity spectrum is concerned, this was performed by using the method of agar dilutions in a double series. The minimum inhibitory concentration (MIC) was performed against grampositive and gram-negative microorganisms as well as Proteus.

[9] = test system: S. aureus Oxford; assay: as above; type: cell-based; conditions: Staphylococcus aureus, agar dilution
Description: as §3

[10] = test system: Salmonelli Typhi M-VI; assay: as above; type: cell-based
Description: as §3

[11] = test system: Strep. agalactiae 4 b; assay: as above; type: cell-based; conditions: Streptococcus agalactiae, agar dilution
Description: as §3

[12] = test system: Strep. faecalis ATCC 10541; assay: as above; type: cell-based; conditions: Enterococcus faecalis, ATCC10541, Strep. faecalis ATCC 10541, agar dilution
Description: as §3

[13] = test system: Proteus morgani N 520; assay: as above; type: cell-based; conditions: Proteus morgani N 520, agar dilution
Description: as §3

[14] = test system: E. Coli K12; assay: as above; type: cell-based; conditions: Escherichia coli, E. Coli K12, agar dilution
Description: as §3

[15] = test system: Shighelli Boydii 4; assay: as above; type: cell-based; conditions: Shighelli Boydii 4, agar dilution
Description: as §3

[16] = Hydrolysis of the esters in the animal organism; type: in vivo; conditions: ester at the alcoholic function
[17] = test system: grampositive and gram-negative microorganisms as well as Proteus; assay: Antibacterial activity of the esterified derivatives compared with Z 2100; conditions: after hydrolysis in the animal organism
Description: as §3

Compound `CS(=O)(=O)c1ccc([C@@H](O)[C@@H](CO)NC(=O)C(Cl)Cl)cc1` [Thiamphenicol, reference compound] has an MIC [1] of 320 µg/mL, an MIC [2] of 160 µg/mL and an MIC [3] of 160 µg/mL (≈ 449 µM). It also gave an MIC [4] of 160 µg/mL (≈ 449 µM), an MIC [5] of 160 µg/mL (≈ 449 µM) and an MIC [6] of 160 µg/mL (≈ 449 µM).

`CS(=O)(=O)c1ccc([C@@H](O)[C@@H](CO)NC(=O)C(F)(F)F)cc1` [Z 2100, D-(+)-threo-1-(p-methanesulphonylphenyl)-2-trifluoroacetamido-1,3-propanediol] gave an MIC [1] of 80 µg/mL, an MIC [2] of 80 µg/mL and an MIC [3] of 40 µg/mL (≈ 117 µM). The MIC [4] was 40 µg/mL (≈ 117 µM), the MIC [5] was 40 µg/mL (≈ 117 µM) and the MIC [6] was 80 µg/mL (≈ 234 µM). For the same compound, the ED50 ([7]; NCTC10722, po, per os) was 19 mg/kg, the MIC [8] was 2 µg/mL (≈ 5.86 µM) and the MIC [9] was 16 µg/mL (≈ 46.9 µM). The MIC [10] was 32 µg/mL (≈ 93.8 µM), the MIC [11] was 16 µg/mL (≈ 46.9 µM) and the MIC [12] was 8 µg/mL (≈ 23.4 µM). It also gave an MIC [13] of 8 µg/mL (≈ 23.4 µM) and an MIC [14] of 64 µg/mL (≈ 188 µM).

Compound `CSc1ccc([C@@H](O)[C@@H](CO)NC(=O)C(F)(F)F)cc1` [Z 2109, D-(-)-threo-1-(p-methylmercaptophenyl)-2-trifluoroacetamido-1,3-propanediol] has an ED50 ([7]; NCTC10722, po, per os) of 16.6 mg/kg, an MIC [8] of 4 µg/mL (≈ 12.9 µM) and an MIC [9] of 32 µg/mL (≈ 103 µM). For the same compound, the MIC [10] was 64 µg/mL (≈ 207 µM), the MIC [15] was 32 µg/mL (≈ 103 µM) and the MIC [11] was 64 µg/mL (≈ 207 µM). For the same compound, the MIC [12] was 32 µg/mL (≈ 103 µM), the MIC [13] was 4 µg/mL (≈ 12.9 µM) and the MIC [14] was 16 µg/mL (≈ 51.7 µM).

For `CCCCCCCCCCCCCCCC(=O)OC[C@@H](NC(=O)C(F)(F)F)[C@H](O)c1ccc(S(C)(=O)=O)cc1` [Z 2112, D-(+)-threo-1-(p-methanesulphonylphenyl)-2-trifluoroacetamido-3-palmitoyloxy-1-propanol], the “hydrolysis in the animal organism” value [16] was “quickly hydrolyzed in the animal organism”, the “activity relative to Z 2100” value [17] was “show the same activity as Z 2100” and the ED50 ([7]; NCTC10722, po, per os) was 21 mg/kg.

In the case of `CS(=O)(=O)c1ccc([C@@H](O)[C@@H](COC(=O)CN)NC(=O)C(F)(F)F)cc1` [Z 2117, D-(+)-threo-1-(p-methanesulphonylphenyl)-2-trifluoroacetamido-3-aminoacetoxy-1-propanol], the “hydrolysis in the animal organism” value [16] was “quickly hydrolyzed in the animal organism”, the “activity relative to Z 2100” value [17] was “show the same activity as Z 2100” and the ED50 ([7]; NCTC10722, sc, subcutaneous) was 14.3 mg/kg.
